# Reference: the supplement of paper PMC10307832
# What was measured:
# Test in all cases: relative viability (nuclei count vs DMSO), 5 days (fraction); higher = more cells survive
# Palbociclib + Trametinib = compound: CC(=O)c1c(C)c2cnc(Nc3ccc(N4CCNCC4)cn3)nc2n(C2CCCC2)c1=O [Palbociclib] + CC(=O)Nc1cccc(-n2c(=O)n(C3CC3)c(=O)c3c(Nc4ccc(I)cc4F)n(C)c(=O)c(C)c32)c1 [Trametinib] (partner 0.02 µM)
# Outline: (§1)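 One day after seeding in 1536-well plates, lung cancer cell lines were dosed by pin tool. Dosing was either single-drug or a fixed anchor-drug dose plus five library-drug doses (not always all listed) in √10 steps. After 5 days, nuclei were stained in one fix-and-stain step and counted on 4× images, and relative viability is the nuclei count of treated wells over that of vehicle wells, given as the median of duplicate plates.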
# Palbociclib + OSI-027 = compound: CC(=O)c1c(C)c2cnc(Nc3ccc(N4CCNCC4)cn3)nc2n(C2CCCC2)c1=O [Palbociclib] + COc1cccc2cc(-c3nc([C@H]4CC[C@H](C(=O)O)CC4)n4ncnc(N)c34)[nH]c12 [OSI-027] (partner 0.5 µM)
# Outline: as §1
# Palbociclib + Luminespib = compound: CC(=O)c1c(C)c2cnc(Nc3ccc(N4CCNCC4)cn3)nc2n(C2CCCC2)c1=O [Palbociclib] + CCNC(=O)c1noc(-c2cc(C(C)C)c(O)cc2O)c1-c1ccc(CN2CCOCC2)cc1 [Luminespib] (partner 0.01 µM)
# Outline: as §1
Cell Line,relative viability (Palbociclib + Trametinib; first compound 0.01 µM),relative viability (Palbociclib + Trametinib; first compound 0.03162 µM),relative viability (Palbociclib + Trametinib; first compound 0.1 µM),relative viability (Palbociclib + Trametinib; first compound 0.3162 µM),relative viability (Palbociclib + Trametinib; first compound 1 µM),relative viability (Palbociclib + OSI-027; first compound 0.01 µM),relative viability (Palbociclib + OSI-027; first compound 0.03162 µM),relative viability (Palbociclib + OSI-027; first compound 0.1 µM),relative viability (Palbociclib + OSI-027; first compound 0.3162 µM),relative viability (Palbociclib + OSI-027; first compound 1 µM),relative viability (Palbociclib + Luminespib; first compound 0.01 µM),relative viability (Palbociclib + Luminespib; first compound 0.03162 µM),relative viability (Palbociclib + Luminespib; first compound 0.1 µM),relative viability (Palbociclib + Luminespib; first compound 0.3162 µM),relative viability (Palbociclib + Luminespib; first compound 1 µM)
SK-LU-1,0.516,0.439,0.39,0.411,0.317,0.375,0.316,0.231,0.241,0.202,0.218,0.177,0.222,0.223,0.207
SK-MES-1,0.562,0.463,0.469,0.432,0.313,0.528,0.364,0.345,0.314,0.186,0.755,0.462,0.587,0.42,0.376
SW 1573,0.6,0.432,0.515,0.42,0.366,0.662,0.468,0.389,0.357,0.235,0.385,0.207,0.257,0.208,0.265
UMC-11,0.762,0.602,0.421,0.406,0.258,0.462,0.417,0.302,0.308,0.286,1.04,0.819,0.69,0.452,0.285
